Source: ChEMBL document CHEMBL3808348, “Rational Design, Synthesis, and Biological Evaluation of 7-Azaindole Derivatives as Potent Focused Multi-Targeted Kinase Inhibitors” (J Med Chem, 2016)

Assays:
[1] = biological target: Fibroblast growth factor receptor 2 (Homo sapiens) (UniProt P21802); assay: Inhibition of His-tagged human recombinant FGFR2 (403 to 822 residues) expressed in baculovirus using Fluorescein-Poly GT as substrate at 100 nM
[2] = biological target: Serine/threonine-protein kinase B-raf (Homo sapiens) (UniProt P15056); assay: Inhibition of full length GST-tagged human recombinant BRAF expressed in baculovirus using Fluorescein-MAP2K1 as substrate at 100 nM
Chain of Serine/threonine-protein kinase B-raf (Homo sapiens) (P15056 whole entry, the tested form may be a part): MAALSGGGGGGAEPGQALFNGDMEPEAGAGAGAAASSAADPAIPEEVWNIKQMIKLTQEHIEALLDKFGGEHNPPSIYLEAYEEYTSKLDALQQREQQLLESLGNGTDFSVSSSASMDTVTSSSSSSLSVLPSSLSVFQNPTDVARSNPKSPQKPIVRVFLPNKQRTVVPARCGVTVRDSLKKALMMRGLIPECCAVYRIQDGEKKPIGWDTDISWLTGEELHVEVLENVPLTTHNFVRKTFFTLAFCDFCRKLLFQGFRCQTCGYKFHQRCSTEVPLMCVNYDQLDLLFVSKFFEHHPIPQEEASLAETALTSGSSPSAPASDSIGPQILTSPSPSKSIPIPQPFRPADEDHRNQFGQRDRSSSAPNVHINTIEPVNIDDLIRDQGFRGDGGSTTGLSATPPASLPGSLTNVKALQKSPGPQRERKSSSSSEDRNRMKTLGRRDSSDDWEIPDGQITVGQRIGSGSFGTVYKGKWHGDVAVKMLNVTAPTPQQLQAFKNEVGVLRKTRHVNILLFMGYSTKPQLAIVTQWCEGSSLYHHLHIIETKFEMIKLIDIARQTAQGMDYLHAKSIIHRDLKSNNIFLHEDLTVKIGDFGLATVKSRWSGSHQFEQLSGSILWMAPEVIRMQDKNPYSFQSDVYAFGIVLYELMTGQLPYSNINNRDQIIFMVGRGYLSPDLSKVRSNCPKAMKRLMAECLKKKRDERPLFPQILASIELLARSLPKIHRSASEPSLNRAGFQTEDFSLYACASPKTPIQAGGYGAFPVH

[3] = biological target: Epidermal growth factor receptor (Homo sapiens, UniProt P00533); assay: Inhibition of GST-tagged human recombinant EGFR (668 to1210 residues) expressed in baculovirus using Fluorescein-Poly GT as substrate at 100 nM
Chain of Epidermal growth factor receptor (P00533 whole entry, the tested form may be a part): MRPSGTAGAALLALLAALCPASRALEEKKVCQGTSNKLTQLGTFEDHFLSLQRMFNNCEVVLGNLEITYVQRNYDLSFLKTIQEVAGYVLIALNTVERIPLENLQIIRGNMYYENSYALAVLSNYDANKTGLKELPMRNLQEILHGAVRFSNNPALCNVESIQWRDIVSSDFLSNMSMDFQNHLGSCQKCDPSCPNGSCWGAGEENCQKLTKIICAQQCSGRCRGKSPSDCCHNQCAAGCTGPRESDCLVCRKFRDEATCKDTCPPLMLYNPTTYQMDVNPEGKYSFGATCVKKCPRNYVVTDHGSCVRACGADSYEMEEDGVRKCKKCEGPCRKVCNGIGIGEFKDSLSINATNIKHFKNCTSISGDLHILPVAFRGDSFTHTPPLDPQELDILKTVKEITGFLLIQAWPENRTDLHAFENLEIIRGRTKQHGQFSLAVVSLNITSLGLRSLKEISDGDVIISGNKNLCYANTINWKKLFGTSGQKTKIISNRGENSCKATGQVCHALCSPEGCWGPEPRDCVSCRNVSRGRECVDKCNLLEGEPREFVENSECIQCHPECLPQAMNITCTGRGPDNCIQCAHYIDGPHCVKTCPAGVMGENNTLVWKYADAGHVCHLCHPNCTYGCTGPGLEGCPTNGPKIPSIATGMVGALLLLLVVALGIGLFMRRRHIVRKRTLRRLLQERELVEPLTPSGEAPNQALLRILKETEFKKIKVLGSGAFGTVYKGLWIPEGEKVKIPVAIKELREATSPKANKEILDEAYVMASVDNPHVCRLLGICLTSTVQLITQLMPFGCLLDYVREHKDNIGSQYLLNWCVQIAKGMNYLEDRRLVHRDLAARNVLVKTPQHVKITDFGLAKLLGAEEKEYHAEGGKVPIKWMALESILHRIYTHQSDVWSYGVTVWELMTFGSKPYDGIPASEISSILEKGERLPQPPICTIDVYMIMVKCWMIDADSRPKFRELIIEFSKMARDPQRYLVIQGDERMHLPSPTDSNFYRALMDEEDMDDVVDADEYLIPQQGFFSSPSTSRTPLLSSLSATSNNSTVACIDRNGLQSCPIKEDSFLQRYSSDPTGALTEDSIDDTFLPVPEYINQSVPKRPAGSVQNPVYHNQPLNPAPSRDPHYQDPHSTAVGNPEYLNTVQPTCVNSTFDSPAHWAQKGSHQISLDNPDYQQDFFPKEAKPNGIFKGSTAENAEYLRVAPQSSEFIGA

[4] = biological target: Platelet-derived growth factor receptor alpha (Homo sapiens, UniProt P16234); assay: Inhibition of full length GST-tagged human recombinant PDGFRalpha expressed in baculovirus using Fluorescein-Poly GT as substrate at 100 nM
Chain of Platelet-derived growth factor receptor alpha (P16234 whole entry): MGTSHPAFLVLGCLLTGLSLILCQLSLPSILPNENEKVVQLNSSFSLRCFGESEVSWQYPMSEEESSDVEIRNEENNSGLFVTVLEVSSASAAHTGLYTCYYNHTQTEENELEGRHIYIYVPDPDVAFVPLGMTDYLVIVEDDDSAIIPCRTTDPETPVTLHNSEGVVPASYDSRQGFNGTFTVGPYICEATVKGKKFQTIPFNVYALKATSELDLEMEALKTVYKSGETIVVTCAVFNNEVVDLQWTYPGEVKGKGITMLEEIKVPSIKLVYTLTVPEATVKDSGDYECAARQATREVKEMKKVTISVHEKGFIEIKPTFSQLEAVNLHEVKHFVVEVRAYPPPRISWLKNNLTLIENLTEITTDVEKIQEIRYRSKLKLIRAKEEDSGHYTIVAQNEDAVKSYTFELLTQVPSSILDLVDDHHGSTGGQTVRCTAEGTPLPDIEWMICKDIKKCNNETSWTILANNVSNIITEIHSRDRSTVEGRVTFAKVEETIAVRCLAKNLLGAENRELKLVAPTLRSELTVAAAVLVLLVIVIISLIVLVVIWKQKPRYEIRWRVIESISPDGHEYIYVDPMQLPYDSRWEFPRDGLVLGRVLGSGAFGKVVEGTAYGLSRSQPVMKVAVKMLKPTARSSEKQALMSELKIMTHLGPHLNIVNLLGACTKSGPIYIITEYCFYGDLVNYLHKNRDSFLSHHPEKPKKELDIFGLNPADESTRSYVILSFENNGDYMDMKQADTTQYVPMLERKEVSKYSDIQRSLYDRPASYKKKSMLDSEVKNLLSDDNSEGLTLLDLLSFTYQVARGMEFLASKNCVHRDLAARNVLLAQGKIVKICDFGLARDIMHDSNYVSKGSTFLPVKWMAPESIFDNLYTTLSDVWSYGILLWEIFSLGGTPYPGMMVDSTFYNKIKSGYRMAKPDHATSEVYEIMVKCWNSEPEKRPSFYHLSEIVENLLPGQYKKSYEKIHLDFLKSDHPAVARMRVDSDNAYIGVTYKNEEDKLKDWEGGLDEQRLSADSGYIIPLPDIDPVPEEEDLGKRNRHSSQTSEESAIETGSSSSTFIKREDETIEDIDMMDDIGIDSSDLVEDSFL

[5] = biological target: Proto-oncogene tyrosine-protein kinase Src (Homo sapiens, UniProt P12931); assay: Inhibition of full length His-tagged human recombinant cSRC expressed in baculovirus using Fluorescein-Poly GT as substrate at 100 nM
Chain of Proto-oncogene tyrosine-protein kinase Src (P12931 2-536 limits assumed): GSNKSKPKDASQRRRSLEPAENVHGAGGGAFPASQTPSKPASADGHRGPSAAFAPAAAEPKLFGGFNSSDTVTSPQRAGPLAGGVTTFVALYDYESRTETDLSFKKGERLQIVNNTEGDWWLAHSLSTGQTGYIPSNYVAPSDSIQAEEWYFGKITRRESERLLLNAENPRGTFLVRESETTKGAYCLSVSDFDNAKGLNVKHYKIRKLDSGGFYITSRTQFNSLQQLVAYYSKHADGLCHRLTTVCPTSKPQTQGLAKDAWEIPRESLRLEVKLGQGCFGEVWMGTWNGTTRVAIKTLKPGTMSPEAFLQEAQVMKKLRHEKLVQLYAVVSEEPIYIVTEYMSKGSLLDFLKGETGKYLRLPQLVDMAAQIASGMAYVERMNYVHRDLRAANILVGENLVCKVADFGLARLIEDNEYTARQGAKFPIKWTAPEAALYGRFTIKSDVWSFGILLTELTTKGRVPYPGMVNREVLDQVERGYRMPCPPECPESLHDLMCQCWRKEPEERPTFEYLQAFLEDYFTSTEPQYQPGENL

[6] = biological target: Vascular endothelial growth factor receptor 2 (Homo sapiens) (UniProt P35968); assay: Inhibition of full length His-tagged human recombinant VEGFR2 expressed in baculovirus using Fluorescein-Poly GT as substrate at 100 nM
Chain of Vascular endothelial growth factor receptor 2 (Homo sapiens) (P35968 whole entry): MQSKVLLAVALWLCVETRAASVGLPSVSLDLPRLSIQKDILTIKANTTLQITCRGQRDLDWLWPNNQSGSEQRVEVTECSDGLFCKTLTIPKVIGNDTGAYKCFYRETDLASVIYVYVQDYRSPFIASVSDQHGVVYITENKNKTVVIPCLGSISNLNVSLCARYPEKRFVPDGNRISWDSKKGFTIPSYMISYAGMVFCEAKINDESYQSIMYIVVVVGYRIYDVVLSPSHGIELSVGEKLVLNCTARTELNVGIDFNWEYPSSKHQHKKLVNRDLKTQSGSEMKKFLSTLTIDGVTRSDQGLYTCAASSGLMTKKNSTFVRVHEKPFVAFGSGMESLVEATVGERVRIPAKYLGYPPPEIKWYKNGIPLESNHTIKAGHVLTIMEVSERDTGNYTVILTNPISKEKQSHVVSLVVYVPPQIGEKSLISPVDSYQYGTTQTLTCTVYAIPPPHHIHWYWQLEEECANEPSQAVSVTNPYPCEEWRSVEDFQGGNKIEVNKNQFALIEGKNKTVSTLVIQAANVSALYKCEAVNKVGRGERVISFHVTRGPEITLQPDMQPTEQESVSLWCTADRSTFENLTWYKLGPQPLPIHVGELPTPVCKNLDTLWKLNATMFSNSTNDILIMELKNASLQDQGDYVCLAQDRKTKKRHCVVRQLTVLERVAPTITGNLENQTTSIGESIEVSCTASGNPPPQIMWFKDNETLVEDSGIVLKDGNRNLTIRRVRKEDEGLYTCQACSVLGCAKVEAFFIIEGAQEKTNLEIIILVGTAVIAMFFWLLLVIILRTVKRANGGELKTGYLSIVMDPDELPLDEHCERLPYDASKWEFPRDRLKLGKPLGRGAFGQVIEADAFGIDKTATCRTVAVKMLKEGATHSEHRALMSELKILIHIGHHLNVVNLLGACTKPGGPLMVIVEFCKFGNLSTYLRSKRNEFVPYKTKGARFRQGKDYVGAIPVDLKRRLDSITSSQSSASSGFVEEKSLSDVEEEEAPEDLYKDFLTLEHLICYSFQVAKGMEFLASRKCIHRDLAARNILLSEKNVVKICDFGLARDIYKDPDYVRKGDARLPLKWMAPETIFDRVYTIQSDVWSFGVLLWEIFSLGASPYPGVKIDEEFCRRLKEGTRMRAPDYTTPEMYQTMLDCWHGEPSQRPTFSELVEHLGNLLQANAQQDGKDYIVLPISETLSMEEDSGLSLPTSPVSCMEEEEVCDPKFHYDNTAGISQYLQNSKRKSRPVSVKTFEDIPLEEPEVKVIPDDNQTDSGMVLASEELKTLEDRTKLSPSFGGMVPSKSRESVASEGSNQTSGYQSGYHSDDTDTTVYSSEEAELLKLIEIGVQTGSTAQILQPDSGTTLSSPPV

[7] = tested on: HepG2; assay: Antiproliferative activity against human HepG2 cells after 72 hrs by MTT assay; format: functional, cell-based; settings: HepG2, 72 h
[8] = tested on: HUVEC; assay: Antiangiogenic activity in HUVEC after 72 hrs by MTT assay; format: functional, cell-based; settings: Homo sapiens
[9] = Antiangiogenic activity in HRMEC after 72 hrs by MTT assay; format: functional, Homo sapiens
[10] = tested on: A549; assay: Antiproliferative activity against human A549 cells after 72 hrs by MTT assay; format: functional, cell-based; settings: A549, 72 h
[11] = tested on: HT-29; assay: Antiproliferative activity against human HT-29 cells after 72 hrs by MTT assay; format: functional, cell-based; settings: HT-29, 72 h
[12] = Antiproliferative activity against human PC3 cells after 72 hrs by MTT assay; format: functional, cell-based; settings: PC-3, 72 h
[13] = Antiproliferative activity against human Caki2 cells after 72 hrs by MTT assay; format: functional, cell-based; settings: CAKI-2, 72 h
[14] = tested on: MDA-MB-231; assay: Antiproliferative activity against human MDA-MB-231 cells after 72 hrs by MTT assay; format: functional, cell-based; settings: MDA-MB-231, 72 h
[15] = tested on: NCI-H1975; assay: Antiproliferative activity against human NCI-H1975 cells harboring EGFR L858R/T790M double mutant after 72 hrs by MTT assay; format: functional, cell-based; settings: NCI-H1975, 72 h
[16] = Antiproliferative activity against human BxPC3 cells after 72 hrs by MTT assay; format: functional, cell-based; settings: BXPC-3, 72 h
[17] = tested on: PBMC; assay: Hematotoxicity in human PHA/IL2-stimulated PBMC; format: cell-based

| SMILES | inhibition [1] | inhibition [2] | inhibition [3] | inhibition [4] | inhibition [5] | inhibition [6] | EC50 [7] | EC50 [8] | EC50 [9] | EC50 [10] | EC50 [11] | EC50 [12] | EC50 [13] | EC50 [14] | EC50 [15] | EC50 [16] | EC50 [17] |
| --- | --- | --- | --- | --- | --- | --- | --- | --- | --- | --- | --- | --- | --- | --- | --- | --- | --- |
| CC(=O)c1cc2cc(NCc3cc(NC(=O)c4ccc(CN5CCC(N(C)C)C5)c(C(F)(F)F)c4)ccc3C)cnc2[nH]1 (stereo not given) | 58% | 56% | 94% | 73% | 91% | 71% | 275 nM | 97 nM | 179 nM | 204 nM | 150 nM | – | – | – | – | – | – |
| CC(=O)c1cc2cc(CCc3cc(NC(=O)c4ccc(CN5CCN(C)CC5)cc4)ccc3C)cnc2[nH]1 | 18% | 67% | 86% | 86% | 77% | 92% | > 1000 nM | 118 nM | – | – | – | – | – | – | – | – | – |
| CCN(CC)CCNC(=O)c1c(C)[nH]c(/C=C2\C(=O)Nc3ccc(F)cc32)c1C [SUNITINIB] | – | – | – | – | – | – | – | – | – | – | – | > 1000 nM | > 1000 nM | > 1000 nM | > 1000 nM | > 1000 nM | – |
| C#Cc1cccc(Nc2ncnc3cc(OCCOC)c(OCCOC)cc23)c1 [ERLOTINIB] | – | – | – | – | – | – | – | – | > 1000 nM | > 1000 nM | > 1000 nM | > 1000 nM | > 1000 nM | > 1000 nM | > 1000 nM | > 1000 nM | – |
| CC(=O)c1cc2cc(CCc3cc(NC(=O)c4ccc(CN5CCC(N(C)C)C5)c(C(F)(F)F)c4)ccc3C)cnc2[nH]1 (stereo not given) | 81% | 60% | 83% | 89% | 97% | 99% | 248 nM | 163 nM | 304 nM | 293 nM | 303 nM | – | – | – | – | – | – |
| COC(=O)c1cc2cc(NCc3cc(NC(=O)c4cncc(C)c4)ccc3C)cnc2[nH]1 | 19% | 95% | 72% | 93% | 89% | 89% | 510 nM | > 1000 nM | – | – | – | – | – | – | – | – | – |
| COC(=O)c1cc2cc(NC(=O)c3cc(NC(=O)c4ccc(CN5CCC(N(C)C)C5)c(C(F)(F)F)c4)ccc3C)cnc2[nH]1 (stereo not given) | 94% | 46% | 76% | 94% | 100% | 93% | 977 nM | 631 nM | – | – | – | – | – | – | – | – | – |
| COC(=O)c1cc2cc(CCc3cc(NC(=O)c4ccc(CN5CCC(N(C)C)C5)c(C(F)(F)F)c4)ccc3C)cnc2[nH]1 (stereo not given) | 101% | 64% | 97% | 105% | 101% | 102% | > 1000 nM | 171 nM | – | – | – | – | – | – | – | – | – |
| COC(=O)c1cc2cc(NCc3cc(NC(=O)c4ccc(CN5CCC(N(C)C)C5)c(C(F)(F)F)c4)ccc3C)cnc2[nH]1 (stereo not given) | 75% | 92% | 80% | 90% | 96% | 96% | 673 nM | 689 nM | – | – | – | – | – | – | – | – | – |
| Cc1nc(Nc2ncc(C(=O)Nc3c(C)cccc3Cl)s2)cc(N2CCN(CCO)CC2)n1 [DASATINIB] | – | – | – | – | – | – | – | – | – | – | – | 232 nM | 55 nM | 44 nM | 173 nM | 33 nM | 1600 nM |
| CNC(=O)c1cc(Oc2ccc(NC(=O)Nc3ccc(Cl)c(C(F)(F)F)c3)c(F)c2)ccn1 [REGORAFENIB] | – | – | – | – | – | – | – | – | – | > 1000 nM | > 1000 nM | – | – | – | – | – | – |
| CNC(=O)c1cc(Oc2ccc(NC(=O)Nc3ccc(Cl)c(C(F)(F)F)c3)cc2)ccn1 [SORAFENIB] | – | – | – | – | – | – | 302 nM | 718 nM | > 1000 nM | > 1000 nM | > 1000 nM | – | > 1000 nM | > 1000 nM | > 1000 nM | > 1000 nM | – |
| COC(=O)c1cc2cc(NCc3cc(NC(=O)c4ccnc(C)c4)ccc3C)cnc2[nH]1 | -6% | 85% | 49% | 82% | 51% | 46% | > 1000 nM | 986 nM | – | – | – | – | – | – | – | – | – |
| COC(=O)c1cc2cc(NCc3cc(NC(=O)c4cncc(C(F)(F)F)c4)ccc3C)cnc2[nH]1 | 13% | 73% | 78% | 93% | 101% | 73% | 963 nM | 390 nM | – | – | – | – | – | – | – | – | – |
| CNC(=O)c1cc2cc(NCc3cc(NC(=O)c4ccc(CN5CCC(N(C)C)C5)c(C(F)(F)F)c4)ccc3C)cnc2[nH]1 (stereo not given) | 98% | 93% | 101% | 94% | 99% | 87% | 179 nM | 83 nM | 81 nM | 495 nM | 227 nM | – | – | – | – | – | – |
| COC(=O)c1cc2cc(COc3cc(NC(=O)c4ccc(CN5CCC(N(C)C)C5)c(C(F)(F)F)c4)ccc3C)cnc2[nH]1 (stereo not given) | 69% | 15% | 93% | 96% | 87% | 86% | > 1000 nM | 426 nM | – | – | – | – | – | – | – | – | – |
| COC(=O)c1cc2cc(NCc3cc(NC(=O)c4ccc5[nH]ccc5c4)ccc3C)cnc2[nH]1 | -4% | 65% | 45% | 87% | 59% | 59% | > 1000 nM | 199 nM | – | – | – | – | – | – | – | – | – |
| CN(C)C/C=C/C(=O)Nc1cc2c(Nc3ccc(F)c(Cl)c3)ncnc2cc1O[C@H]1CCOC1 [AFATINIB] | – | – | – | – | – | – | – | – | – | – | – | – | – | > 1000 nM | 116 nM | > 1000 nM | – |
| COC(=O)c1cc2cc(NCc3cc(NC(=O)c4ccc5c(c4)OCO5)ccc3C)cnc2[nH]1 | 3% | 77% | 40% | 91% | 68% | 58% | > 1000 nM | 298 nM | – | – | – | – | – | – | – | – | – |
| COC(=O)c1cc2cc(NC(=O)c3cc(NC(=O)c4ccc(CN5CCN(C)CC5)cc4)ccc3C)cnc2[nH]1 | 8% | 71% | 65% | 41% | 94% | 97% | > 1000 nM | > 1000 nM | – | – | – | – | – | – | – | – | – |
| CNC(=O)c1cc2cc(NCc3cc(NC(=O)c4ccc(CN5CCN(C)CC5)cc4)ccc3C)cnc2[nH]1 | 23% | 86% | 99% | 95% | 98% | 93% | > 1000 nM | > 1000 nM | – | – | – | – | – | – | – | – | – |
| COC(=O)c1cc2cc(NCc3cc(NC(=O)c4ccc(CN5CCN(C)CC5)cc4)ccc3C)cnc2[nH]1 | 21% | 60% | 81% | 85% | 93% | 73% | > 1000 nM | > 1000 nM | – | – | – | – | – | – | – | – | – |
